Assay results from patent US20090131354A1, “miR-126 REGULATED GENES AND PATHWAYS AS TARGETS FOR THERAPEUTIC INTERVENTION” (priority 2007, published 2009).

Test system: A549 cells
Assay: mRNA array gene expression analysis after transfection
Assay type: cell-based, human
Details: A549, 30 nM

Substance: hsa-miR-126 (UCGUACCGUGAGUAAUAAUGC; synthetic pre-miR form, further chemistry not given here) [Synthetic hsa-miR-126 (Pre-miR™-hsa-miR-126, Ambion cat. no. AM17100)]
- Δ log2 LBA1 mRNA: 1.07 log2
- Δ log2 LCN2 mRNA: 1.032 log2
- Δ log2 LOC93349 mRNA: 1.021 log2
- Δ log2 LOC257407 mRNA: 1.211 log2
- Δ log2 LRP12 mRNA: −2.094 log2
- Δ log2 LXN mRNA: 1.017 log2
- Δ log2 M6PRBP1 mRNA: −1.074 log2
- Δ log2 MAP1B mRNA: −0.706 log2
- Δ log2 MAP3K1 mRNA: 1.609 log2
- Δ log2 MAPK6 mRNA: −0.81 log2
- Δ log2 MASK mRNA: −1.4 log2
- Δ log2 MAWBP mRNA: 1.126 log2
- Δ log2 MAZ mRNA: −1.133 log2
- Δ log2 MCL1 mRNA: 1.394 log2
- Δ log2 MET mRNA: −0.9508 log2
- Δ log2 MICAL2 mRNA: −1.182 log2
- Δ log2 MMP7 mRNA: 1.127 log2
- Δ log2 MR1 mRNA: 0.702 log2
- Δ log2 MTUS1 mRNA: 0.7009 log2
- Δ log2 MYBL1 mRNA: −1.008 log2
- Δ log2 NAB1 mRNA: −0.7242 log2
- Δ log2 NCF2 mRNA: −0.8706 log2
- Δ log2 NEK4 mRNA: −1.197 log2
- Δ log2 NF1 mRNA: −1.383 log2
- Δ log2 NF2 mRNA: −0.8288 log2
- Δ log2 NID1 mRNA: 0.8833 log2
- Δ log2 NPTX1 mRNA: −1.204 log2
- Δ log2 NR1H4 mRNA: 1.063 log2
- Δ log2 NR2F1 mRNA: 0.8754 log2
- Δ log2 NR4A2 mRNA: 1.19 log2
- Δ log2 NRIP1 mRNA: 0.7196 log2
- Δ log2 NUCKS mRNA: 2.05 log2
- Δ log2 OLFML3 mRNA: −1.333 log2
- Δ log2 OXTR mRNA: −1.374 log2
- Δ log2 PCAF mRNA: −1.071 log2
- Δ log2 PDCD4 mRNA: 1.094 log2
- Δ log2 PDK4 mRNA: 1.686 log2
- Δ log2 PDXK mRNA: −1.142 log2
- Δ log2 PDZK1IP1 mRNA: 0.8906 log2
- Δ log2 PEX10 mRNA: −0.7177 log2
- Δ log2 PGK1 mRNA: 1.563 log2
- Δ log2 PHACTR2 mRNA: 0.8791 log2
- Δ log2 PHTF2 mRNA: −1.334 log2
- Δ log2 PLA1A mRNA: 1.623 log2
- Δ log2 PLA2G4A mRNA: 0.8899 log2
- Δ log2 PLCB1 mRNA: 1.421 log2
- Δ log2 PLEC1 mRNA: −0.9035 log2
- Δ log2 PLK1 mRNA: −0.7295 log2
- Δ log2 PLOD2 mRNA: −1.204 log2
- Δ log2 PMCH mRNA: 0.9697 log2
- Δ log2 PMM1 mRNA: −1.034 log2
- Δ log2 PPP3CB mRNA: −1.185 log2
- Δ log2 PRKCA mRNA: −1.083 log2
- Δ log2 PRO1843 mRNA: 1.386 log2
- Δ log2 PROS1 mRNA: 1.021 log2
- Δ log2 PSME3 mRNA: −0.8427 log2
- Δ log2 PTENP1 mRNA: 0.8904 log2
- Δ log2 PTK9 mRNA: 1.028 log2
- Δ log2 PTP4A1 mRNA: 0.7259 log2
- Δ log2 PXN mRNA: −0.8029 log2
- Δ log2 Pfs2 mRNA: −0.7674 log2
- Δ log2 QDPR mRNA: −1.048 log2
- Δ log2 QKI mRNA: 0.7094 log2
- Δ log2 RAB2 mRNA: 1.459 log2
- Δ log2 RAB11FIP2 mRNA: −0.8417 log2
- Δ log2 RAB40B mRNA: 1.166 log2
- Δ log2 RABL2B /// RABL2A mRNA: −0.8805 log2
- Δ log2 RAFTLIN mRNA: 0.9753 log2
- Δ log2 RARRES1 mRNA: 1.523 log2
- Δ log2 RARRES3 mRNA: 1.399 log2
- Δ log2 RASSF2 mRNA: −1.355 log2
- Δ log2 RBP4 mRNA: 1.037 log2
- Δ log2 RGC32 mRNA: 1.701 log2
- Δ log2 RHEB mRNA: 1.113 log2
- Δ log2 RHOB mRNA: −1.015 log2
- Δ log2 RHOBTB1 mRNA: 1.197 log2
- Δ log2 RIG mRNA: 0.9993 log2
- Δ log2 RIP mRNA: 1.299 log2
- Δ log2 RNASE4 mRNA: 1.351 log2
- Δ log2 RNF14 mRNA: −1.293 log2
- Δ log2 RPL14 mRNA: 0.7937 log2
- Δ log2 RPL38 mRNA: 1.084 log2
- Δ log2 RPS11 mRNA: 1.097 log2
- Δ log2 RRAGD mRNA: 1.193 log2
- Δ log2 SCARB2 mRNA: 0.9635 log2
- Δ log2 SCML1 mRNA: 0.9483 log2
- Δ log2 SDC1 mRNA: −0.9726 log2
- Δ log2 SDC4 mRNA: −1.316 log2
- Δ log2 SEC24A mRNA: 0.7724 log2
- Δ log2 SELENBP1 mRNA: 1.193 log2
- Δ log2 SEPP1 mRNA: 2.014 log2
- Δ log2 SEPT9 mRNA: −0.7282 log2
- Δ log2 SERPINA6 mRNA: 1.032 log2
- Δ log2 SERPINE1 mRNA: −1.338 log2
- Δ log2 SF3B4 mRNA: −1.044 log2
- Δ log2 SGPL1 mRNA: −1.59 log2
- Δ log2 SGPP1 mRNA: −1.773 log2
- Δ log2 SH3YL1 mRNA: 1.026 log2
- Δ log2 SLC2A3 mRNA: 0.7467 log2
- Δ log2 SLC3A2 mRNA: −1.221 log2
- Δ log2 SLC4A4 mRNA: −1.661 log2
- Δ log2 SLC4A7 mRNA: −0.9064 log2
- Δ log2 SLC7A5 mRNA: −1.958 log2
- Δ log2 SLC7A11 mRNA: −0.721 log2
- Δ log2 SLC26A2 mRNA: −1.615 log2
- Δ log2 SLC35D1 mRNA: −1.443 log2
- Δ log2 SLC39A6 mRNA: −2.468 log2
- Δ log2 SMARCA2 mRNA: 0.8119 log2
- Δ log2 SMTN mRNA: −1.071 log2
- Δ log2 SNRPD1 mRNA: −0.7027 log2
- Δ log2 SOCS2 mRNA: −0.7193 log2
- Δ log2 SORBS3 mRNA: −1.106 log2
- Δ log2 SPFH2 mRNA: 0.9346 log2
- Δ log2 SRD5A1 mRNA: −0.9713 log2
- Δ log2 STC1 mRNA: 0.8696 log2
- Δ log2 STK24 mRNA: −1.021 log2
- Δ log2 STX3A mRNA: 0.7983 log2
- Δ log2 SUMO2 mRNA: 0.9996 log2
- Δ log2 TAGLN mRNA: −0.9221 log2
- Δ log2 TARDBP mRNA: −1.05 log2
- Δ log2 TFG mRNA: 0.9981 log2
- Δ log2 TFPI mRNA: 1.003 log2
- Δ log2 TGFBR2 mRNA: 1.068 log2
- Δ log2 TGFBR3 mRNA: 1.082 log2
- Δ log2 THBS1 mRNA: −0.9922 log2
- Δ log2 TJP2 mRNA: 0.8301 log2
- Δ log2 TLR3 mRNA: 1.096 log2
- Δ log2 TM4SF20 mRNA: 0.9319 log2
- Δ log2 TNFAIP6 mRNA: −1.542 log2
- Δ log2 TNFRSFI2A mRNA: −1.07 log2
- Δ log2 TNFSF10 mRNA: 1.066 log2
- Δ log2 TNRC9 mRNA: 0.8141 log2
- Δ log2 TNS1 mRNA: 1.235 log2
- Δ log2 TP73L mRNA: 0.7602 log2
- Δ log2 TRA1 mRNA: 1.982 log2
- Δ log2 TRIM14 mRNA: −1.157 log2
- Δ log2 TRIM22 mRNA: 1.379 log2
- Δ log2 TSC mRNA: 1.372 log2
- Δ log2 TSPAN7 mRNA: 0.8049 log2
- Δ log2 TSPAN8 mRNA: 1.266 log2
- Δ log2 TTC3 mRNA: 0.7079 log2
- Δ log2 TUBB2 /// TUBB-PARALOG mRNA: −0.904 log2
- Δ log2 TXN mRNA: 1.543 log2
- Δ log2 TncRNA: 1.613 log2
- Δ log2 UAP1 mRNA: −1.613 log2
- Δ log2 UBE2L6 mRNA: 0.9119 log2
- Δ log2 UPK1B mRNA: −1.042 log2
- Δ log2 VDAC1 mRNA: −1.181 log2
- Δ log2 VDAC3 mRNA: 1.063 log2
- Δ log2 VIL2 mRNA: 0.7604 log2
- Δ log2 WDR1 mRNA: −0.8373 log2
- Δ log2 WDR41 mRNA: −1.49 log2
- Δ log2 WEE1 mRNA: 0.8892 log2
- Δ log2 WNT7B mRNA: −1.114 log2
- Δ log2 XM_371853 (gene symbol —) mRNA: 0.9326 log2
- Δ log2 XTP2 mRNA: 0.9083 log2
- Δ log2 YKT6 mRNA: −1.176 log2
- Δ log2 YOD1 mRNA: 0.869 log2
- Δ log2 YTHDF3 mRNA: −0.9397 log2
- Δ log2 ZNF467 mRNA: 1.211 log2
